Experimental data as given in patent publication US4369120A, “Refrigeration liquid with leak indicator and process of using same” (priority 1981, dated 1983).
“Also recorded” adds a separate entry of the source.

How the values were obtained:
[1] = Sealed tube test of stability of dyes in refrigerant/refrigeration oil with metal coupons; assay type: physicochemical; settings: for Stability, Mean Life: Table I, sealed tube data in R-12 at 350° F.; for stability in the sealed tube test (in words): Table I dyes
Protocol: By reference to Table I below it can be appreciated that such ortho substitution has a remarkably beneficial effect on the stability of the dyes in the accelerated sealed tube test used for evaluation. The first three dyes listed, embodying the principles of this invention, routinely withstand in excess of twenty days in the sealed tube test at 350° F. (176.7° C.), equivalent to many years of normal use in a refrigeration system.
The sealed tube test serves as a method of evaluating in an accelerated manner interactions of materials found in a refrigeration system.
Glass tubes and all metal test coupons are scrupulously cleaned. Test refrigerants are distilled to minimize moisture contamination. Moisture is removed from the refrigeration test oil "Suniso" 3GS by subjecting the oil to a vacuum with slight stirring and heating. Ratios of refrigerant/refrigerant oil range from 1:1 to 1:2 by weight.
Refrigerant oil and representative metal coupons of copper #10AWG wire, Swedish valve stock steel, and aluminum metal sheet are placed in a glass tube along with the subject test dye material (0.25-1.0% wt/wt) dissolved in the refrigerant oil. Like samples without the subject dye are analyzed as controls.
The tube and its contents are chilled in a liquid nitrogen bath while the refrigerant is condensed into the tube via a calibrated manometer. The tube is sealed under a vacuum of at least 0.1 torr.
Glass tubes and contents are subjected to uniform heating in a bored aluminum block placed in a temperature-programmed oven.
The oven temperatures used vary according to the test refrigerant, as indicated:
The test is run for one of the following time periods: 5, 14, 21, 30 or 60 days.
The tube contents may be evaluated by several methods:
of these methods, the visual examination is the most rapid and the only qualitative method. Any color change in the subject dye coloration is noted when compared to a control sample.
The quantitative methods involve analysis for decomposition products of chloride as hydrochloric acid or organic products by gas chromatography, infrared spectroscopy, or mass spectroscopy. However, visual inspection and gas chromatography are widely used, and they were selected as standardization procedures for evaluation of sealed tube contents.
R-12 is chemically one of the more reactive refrigerants; thus, short term tests with refrigeration liquids containing this refrigerant admixed with a mineral oil yield the most rapid results. R-22 and R-502 are also used but the decomposition products are more difficult to analyze by gas chromatography. Ultimately the test material must pass interactions involving any of these refrigerants. The visual method can be used empirically on a pass-fail basis. As verified experimentally, visual results are considered as valid as instrumental methods.

[2] = Solubility of dyes in halocarbon refrigerants; assay type: physicochemical
Protocol: Solubilities of various dyes in various halocarbon refrigerants were also determined according to the following standardized procedure. […] The R-11 was allowed to vaporize, leaving a known amount of dye in the bottom portion of the test tube. The tube was then attached to a charging apparatus containing a supply of a given halocarbon refrigerant and various amounts of the refrigerant were charged into the tube while chilling the latter by immersion in liquid nitrogen. The tube containing the dye/refrigerant mixture was sealed under vacuum, allowed to reach room temperature (about 21° C.) and rotated for several hours. Visual inspection of the tube was made at several temperatures to note the degree of dissolution. The procedure was improved over previously used methods in that an exact predetermined amount of dye and refrigerant were made to interact, requiring fewer weighings. Finally, it became possible to use the same tube to check solubility at several different temperatures.

[3] = Solubility of dyes in refrigeration oils; settings: for Dye Solubility in refrigeration oil: room temperature (about 21° C.); for Oil Sol. In 3GS: Table I, Suniso 3GS refrigeration oil
Protocol: Manufacturers of refrigeration equipment generally demand that any refrigeration liquid satisfactorily pass such a sealed tube test before they approve the liquid for use in their equipment. In addition, the solubility of the various dyes in oil and in refrigerant were determined.
Solubility of various dyes in various refrigeration oils was carefully determined according to the following standardized procedure. An excess of the subject dye was added to a given weight (e.g., 100 g) of refrigerant oil. The mixture was stirred for one-half hour with mild heating, whereupon it was cooled to room temperature (about 21° C.) and transferred to a centrifuge tube. The mixture was centrifuged approximately 15 minutes at 1000 rpm. A sample of the supernatant liquid was decanted (1.00 g±0.01 g) and diluted to 100 ml volume with methylene chloride. Aliquot portions were taken and read against the principal absorption peaks by visible light spectroscopy. Wt/wt percentage concentrations were then calculated from proper standard curves.

In the case of `CCc1cccc(C)c1Nc1ccc(Nc2c(C)cccc2CC)c2c1C(=O)c1ccccc1C2=O` [Dye No. 1-35, 1,4-bis(2-methyl-6-ethylanilino)anthraquinone], the “stability in the sealed tube test at 402° F. (in words)” value ([1]; 402° F. (205.5° C.), compared with 350° F.) is reported as “virtually as stable at 402° F. (205.5° C.) as it is at 350° F. (176.7° C.); also recorded: excellent stability of dye No. 1-35 persists even at much higher test temperatures”, the “Mean Life, Days at 350° F.” value ([1]; Sample C, purity 97%) is reported as 24.0 days and the “Mean Life, Days at 350° F.” value ([1]; Sample D, purity 95%) is reported as 24.0 days. For the same molecule, the “Mean Life, Days at 350° F.” value ([1]; Sample E, purity 89%) was 17.0 days, the “Mean Life, Days at 350° F.” value ([1]; Sample F, purity 65%) was 5.0 days and the “Mean Life, Days at 350° F.” value ([1]; Samples A and B, purity 100% (by definition)) was 26.2 days. For the same molecule, the “Stability, Mean Life” value [1] was 26.2 days, the “stability as measured by the sealed tube test” value ([1]; text summary of Table I, 350° F.) was greater than 20 days and the “solubility in the halocarbon refrigerant (in words)” value [2] was “sufficient solubility; also recorded: substantially greater solubility in the various refrigerants than the other dyes tested”. For the same molecule, the Solubility in refrigerant ([2]; R-11, 21° C.) was 0.2 %(wt/wt), the Solubility in refrigerant ([2]; R-12, 0° C.) was 0.2 %(wt/wt) and the Solubility in refrigerant ([2]; R-12, 21° C.) was 0.2 %(wt/wt). The Solubility in refrigerant ([2]; R-12, -20° C.) was 0.2 %(wt/wt), the Solubility in refrigerant ([2]; R-22, 0° C.) was 0.4 %(wt/wt) and the Solubility in refrigerant ([2]; R-22, 21° C.) was 0.4 %(wt/wt). For the same molecule, the Solubility in refrigerant ([2]; R-22, -20° C.) was 0.4 %(wt/wt), the Solubility in refrigerant ([2]; R-502, 0° C.) was < 0.1 %(wt/wt) and the Solubility in refrigerant ([2]; R-502, 21° C.) was 0.1 %(wt/wt). The Solubility in refrigerant ([2]; R-502, -20° C.) was < 0.1 %(wt/wt), the “Refr. Sol. In R-12” value ([2]; Table I, refrigerant R-12) was 0.2% and the “solubility in the refrigeration oil (in words)” value [3] was “relatively high solubility”. The “Dye Solubility in refrigeration oil” value ([3]; DuPont Zephron 150 (alkyl benzene type)) was 5.3 %(wt/wt), the “Dye Solubility in refrigeration oil” value ([3]; Suniso 3GS) was 4.8 %(wt/wt) and the “Dye Solubility in refrigeration oil” value ([3]; Suniso 4GS) was 4.6 %(wt/wt). For the same molecule, the “Dye Solubility in refrigeration oil” value ([3]; Suniso 5GS) was 4.8 %(wt/wt), the “Oil Sol. In 3GS” value [3] was 4.8% and the “Dye Solubility in refrigeration oil” value ([3]; Texaco Cappella D) was 4.8 %(wt/wt). The “Dye Solubility in refrigeration oil” value ([3]; Texaco Cappella E) was 4.9 %(wt/wt) and the “solubility in representative naphthenic and alkyl benzene refrigeration oils” value ([3]; summary of Table II) was “about 5%”.
With `CCCCc1ccc(Nc2ccc(Nc3ccc(CCCC)cc3)c3c2C(=O)c2ccccc2C3=O)cc1` [Dye No. 4-1, 1,4-Bis(4-n-butylanilino)] the “Stability, Mean Life” value [1] was 9.5 days and the “Oil Sol. In 3GS” value [3] was less than 1.0%.
For `O=C1c2ccccc2C(=O)c2c(Nc3ccc(C4CCCCC4)cc3)ccc(Nc3ccc(C4CCCCC4)cc3)c21` [Dye No. 5-5, 1,4-Bis(4-cyclohexylanilino)], the “Stability, Mean Life” value [1] was 9.7 days and the “Oil Sol. In 3GS” value [3] was 0.1%.
In the case of `CC(C)(C)c1ccc(Nc2ccc(Nc3ccc(C(C)(C)C)cc3)c3c2C(=O)c2ccccc2C3=O)cc1` [Dye No. 6-21, 1,4-Bis(4-t-butylanilino)], the “Stability, Mean Life” value [1] is reported as 8.7 days and the “Oil Sol. In 3GS” value [3] is reported as 1.0%.
For `CCOc1ccc(Nc2ccc(Nc3ccc(OCC)cc3)c3c2C(=O)c2ccccc2C3=O)cc1` [Dye No. 7-3, 1,4-Bis(4-ethoxyanilino)], the “Stability, Mean Life” value [1] was 8.5 days and the “Oil Sol. In 3GS” value [3] was less than 1.0%.
In the case of `CCCCOc1ccc(Nc2ccc(Nc3ccc(OCCCC)cc3)c3c2C(=O)c2ccccc2C3=O)cc1` [Dye No. 8-2, 1,4-Bis(4-n-butoxyanilino)], the “Stability, Mean Life” value [1] is reported as 8.6 days and the “Oil Sol. In 3GS” value [3] is reported as 0.02%.
With `O=C1c2ccccc2C(=O)c2c(NCCc3ccccc3)ccc(NCCc3ccccc3)c21` [Dye No. 9-8, 1,4-Bis(β-phenethylamino)] the “Stability, Mean Life” value [1] was 4.4 days and the “Oil Sol. In 3GS” value [3] was 0.1%.
With `O=C1c2ccccc2C(=O)c2c(NCc3ccccc3)ccc(NCc3ccccc3)c21` [Dye No. 10-19, 1,4-Bis(benzylamino)] the “Stability, Mean Life” value [1] was 4.5 days and the “Oil Sol. In 3GS” value [3] was less than 0.25%.
With `CC(Nc1ccc(NC(C)c2ccccc2)c2c1C(=O)c1ccccc1C2=O)c1ccccc1` (stereo not drawn) [Dye No. 11-17, 1,4-Bis(α-methylbenzylamino)] the “Stability, Mean Life” value [1] was 3.5 days and the “Oil Sol. In 3GS” value [3] was 1.0%.
With `O=C1c2ccccc2C(=O)c2c(NC(c3ccccc3)c3ccccc3)ccc(NC(c3ccccc3)c3ccccc3)c21` [Dye No. 12-20, 1,4-Bis(diphenylmethylamino)] the “Stability, Mean Life” value [1] was 2.0 days and the “Oil Sol. In 3GS” value [3] was less than 0.05%.
For `CCCCCCCCNc1ccc(NCCCCCCCC)c2c1C(=O)c1ccccc1C2=O` [Dye No. 13-27, 1,4-Bis(n-octylamino)], the “Stability, Mean Life” value [1] was 4.4 days and the “Oil Sol. In 3GS” value [3] was 0.5%.
In the case of `CCCCCCCCCCCCNc1ccc(NCCCCCCCCCCCC)c2c1C(=O)c1ccccc1C2=O` [Dye No. 14-32, 1,4-Bis(n-dodecylamino)], the “Stability, Mean Life” value [1] is reported as 2.3 days and the “Oil Sol. In 3GS” value [3] is reported as 0.5%.
For `CC(C)(C)CNc1ccc(NCC(C)(C)C)c2c1C(=O)c1ccccc1C2=O` [Dye No. 15-13, 1,4-Bis(neopentylamino)], the “stability in the sealed tube test (in words)” value ([1]; 350° F.) was “very unstable”, the “Stability, Mean Life” value [1] was 3.4 days and the “Oil Sol. In 3GS” value [3] was less than 1.0%.
For `CN(c1ccccc1)c1ccc(N(C)c2ccccc2)c2c1C(=O)c1ccccc1C2=O` [Dye No. 16-10, 1,4-Bis(N--methylanilino)], the “stability in the sealed tube test (in words)” value ([1]; 350° F.) was “very unstable”, the “Stability, Mean Life” value [1] was 7.0 days and the “Oil Sol. In 3GS” value [3] was 0.1%.
In the case of `CCN(c1ccccc1)c1ccc(N(CC)c2ccccc2)c2c1C(=O)c1ccccc1C2=O` [Dye No. 17-14, 1,4-Bis(N--ethylanilino)], the “stability in the sealed tube test (in words)” value ([1]; 350° F.) is reported as “very unstable”, the “Stability, Mean Life” value [1] is reported as 4.5 days and the “Oil Sol. In 3GS” value [3] is reported as 1.0%.
In the case of `CCCCc1ccc(N(C)c2ccc(N(C)c3ccc(CCCC)cc3)c3c2C(=O)c2ccccc2C3=O)cc1` [Dye No. 18-6, 1,4-Bis(N-methyl-4-n-butylanilino)anthraquinone], the “stability in the sealed tube test (in words)” value ([1]; 350° F.) is reported as “very unstable”, the “Stability, Mean Life” value [1] is reported as 4.3 days and the “Oil Sol. In 3GS” value [3] is reported as 0.1%.
In the case of `CCOc1ccc(N(C)c2ccc(N(C)c3ccc(OCC)cc3)c3c2C(=O)c2ccccc2C3=O)cc1` [Dye No. 19-9, 1,4-Bis(N--methyl-4-ethoxyanilino)], the “stability in the sealed tube test (in words)” value ([1]; 350° F.) is reported as “very unstable”, the “Stability, Mean Life” value [1] is reported as 6.0 days and the “Oil Sol. In 3GS” value [3] is reported as 0.1%.
For `CCCCOc1ccc(N(C)c2ccc(N(C)c3ccc(OCCCC)cc3)c3c2C(=O)c2ccccc2C3=O)cc1` [Dye No. 20-12, 1,4-Bis(N--methyl-4-n-butoxyanilino)], the “stability in the sealed tube test (in words)” value ([1]; 350° F.) was “very unstable”, the “Stability, Mean Life” value [1] was 4.0 days and the “Oil Sol. In 3GS” value [3] was 0.1%.
For `CCCCc1ccc(Nc2ccc(Nc3ccc(C)cc3)c3c2C(=O)c2ccccc2C3=O)cc1` [Dye No. 21-11, 1-(4-n-butylanilino)-4-(p-toluidino)], the “Stability, Mean Life” value [1] was 7.7 days and the “Oil Sol. In 3GS” value [3] was 0.1%.
For `CCCCc1ccc(Nc2cc(C)c(Nc3ccc(CCCC)cc3)c3c2C(=O)c2ccccc2C3=O)cc1` [Dye No. 22-16, 1,4-Bis(4-n-butylanilino)-2-methyl], the “stability in the sealed tube test (in words)” value ([1]; 350° F.) was “very unstable”, the “Stability, Mean Life” value [1] was 3.0 days and the “Oil Sol. In 3GS” value [3] was 1.0%.
With `O=C1c2ccccc2C(=O)c2c(Nc3ccccc3C(F)(F)F)ccc(Nc3ccccc3C(F)(F)F)c21` [Dye No. 23-24, 1,4-Bis(2-trifluoro-methylanilino)] the “stability in the sealed tube test (in words)” value ([1]; 350° F.) was “very unstable”, the “Stability, Mean Life” value [1] was 6.5 days and the “Oil Sol. In 3GS” value [3] was 0.5%.
